Experimental data: BigSolDB 2.1

C[C@@H](Oc1ccc(Oc2nc3ccc(Cl)cc3o2)cc1)C(=O)N(C)c1ccccc1F
solubility (mole fraction)
Settings | in cyclohexane | in isobutanol | in isopentanol | in isopropanol | in n-butanol | in n-hexane | in n-pentanol | in n-propanol | in sec-butanol
278.15 K | – | 0.00347 | 0.00526 | 0.00231 | 0.00631 | 0.000329 | 0.00739 | 0.00476 | 0.00344
283.15 K | 0.00449 | 0.00487 | 0.00724 | 0.00315 | 0.00822 | 0.000495 | 0.00951 | 0.00646 | 0.00491
288.15 K | 0.00627 | 0.00676 | 0.00977 | 0.00422 | 0.0109 | 0.000594 | 0.0123 | 0.00876 | 0.00683
293.15 K | 0.00814 | 0.00921 | 0.013 | 0.00543 | 0.0139 | 0.000811 | 0.015 | 0.0115 | 0.00919
298.15 K | 0.0115 | 0.0126 | 0.0173 | 0.00714 | 0.0183 | 0.00112 | 0.0187 | 0.0155 | 0.0122
303.15 K | 0.0146 | 0.0169 | 0.0216 | 0.00963 | 0.0237 | 0.00156 | 0.0228 | 0.0209 | 0.016
308.15 K | 0.0208 | – | – | – | – | 0.00196 | – | – | –
313.15 K | 0.0287 | – | – | – | – | 0.00245 | – | – | –
